In paper PMC8110993, “Structure and antimicrobial activity of NCR169, a nodule-specific cysteine-rich peptide of Medicago truncatula” (Scientific Reports, 2021):
Read-outs that look alike come from different tables or passages of the source. Where a SMILES comes first, the peptide text is derived from it. Bridges are numbered along the chain shown (N, C = ends). Where no end group is shown, it is not given here.

Assays:
[1] = format: physicochemical; conditions: pH 2.2
Experimental: We further measured the circular dichroism (CD) spectra of NCR169-ox1 and -ox2 under various pH conditions to confirm their structural stability against pH (Supplementary Fig. S4). […] Because acidic pH is preferable for amide proton detection in NMR experiments, we performed the following solution NMR study at lower pH.
CD spectra were recorded within a wavelength range of 270–195 nm using a JASCO J-820 spectropolarimeter (JASCO International Co., Ltd., Tokyo, Japan). A quartz cell with a light path length of 1 mm was used for the measurements. The sample temperature was maintained at 25 °C during the measurements.
Supplementary Figure S4. Circular dichroism (CD) spectra of NCR169-ox1 and -ox2 under
various pH conditions. The signal reflectingβ-sheet structure (218 nm) was hardly changed.

[2] = Liposome sedimentation (binding) assay; conditions: peptide 20 μM, 2 mM DMPC liposomes, 20 mM HEPES, 150 mM NaCl, pH 7.0, 30 min room temperature, 200,000×g, supernatant and pellet by Tricine-SDS-PAGE
Experimental: (§1) Figure 3 NCR169 binds to the bacterial phospholipid. (A) Circular dichroism (CD) spectra of NCR169 peptides (NCR169-ox1 and -ox2). NCR169 peptides (20 μM) were dissolved in the following solvents: water (No additives), 2 mM DMPC liposomes, 2 mM DMPG liposomes or 30% 2,2,2-trifluoroethanol (TFE). (B) The results of liposome binding assays. The NCR169 peptide (20 μM) was incubated with buffer (No lipid), 2 mM DMPC liposomes, or 2 mM DMPG liposomes. After incubation at room temperature for 30 min, the mixture was ultra-centrifuged at 200,000×g. The supernatant and pellet fractions were analyzed by Tricine-SDS-PAGE. The no lipid sample before ultra-centrifugation was used as the input.
(§2) The phospholipids DMPC and DMPG were purchased from Avanti Polar Lipids (Alabaster, AL, USA). An appropriate amount of phospholipid was dissolved in chloroform and dried under vacuum for 1 h. The lipid film was suspended in water, vortexed, and sonicated for 30 min to form the liposomes.
The assay was carried out as described previously. Briefly, equal volumes of NCR169 peptide (20 μM) and liposomes (2 mM) were mixed in assay buffer (20 mM HEPES, 150 mM NaCl, pH 7.0) and incubated for 30 min at room temperature, followed by ultracentrifugation at 200,000×g for 15 min at 20 °C. […] The supernatant and pellet fractions were subjected to Tricine-SDS-PAGE, and peptides were detected by Coomassie Brilliant Blue staining.

Escherichia coli K-12 = format: cell-based; conditions: for IC100: E. coli K-12, drop plate method, 2 h treatment at room temperature, 5 mM HEPES-KOH pH 7.0
Experimental: (§3) Antimicrobial tests were performed using the drop plate method[12],[47]. Bacterial strains in the logarithmic phase (OD600 = 0.5–0.8) were diluted with 5 mM HEPES–KOH (pH 7.0) to a bacterial culture value of 1 × 10^6 CFU/mL. At OD600 = 0.1, the concentrations of S. meliloti and E. coli K-12 cells were 6.4 × 10^6 CFU/mL and 5.2 × 10^7 CFU/mL, respectively. Equal volumes of bacteria (S. meliloti or E. coli K-12) and NCR169 peptide or PMB were mixed and incubated at room temperature for 2 h. For antimicrobial tests against S. meliloti, 10 μL of each serially diluted mixture was spotted on MHB plates with 2.5 mM MgCl2, and 2.5 mM CaCl2, followed by incubation at 30 °C for 40 h. For antimicrobial tests against E. coli K-12, 10 μL of each mixture was spotted on Mueller Hinton Broth (MHB; MilliporeSigma, Burlington, MA, USA) plates followed by incubation at 30 °C for 13 h.
(§4) To estimate survival rate, the peptide-treated bacterial mixtures were serially diluted with the buffer before spotting on the plate. Bacterial survival rates were calculated using the colony numbers of each bacterial strain with or without peptide treatment. All experiments were repeated at least four times.
(§5) Supplementary Table S2. Antimicrobial activities of NCR169 peptides against E. coliK-12 and S. meliloti.
(§6) Peptide IC50 (μM)* IC100 (μM)
(§7) E. coli K-12 S. meliloti E. coli K-12 S. meliloti
(§8) IC50: 50% inhibitory concentration (Calculated using “Dose-response curve” fitting)

Sinorhizobium meliloti = format: cell-based; conditions: for IC100: drop plate method, 2 h treatment at room temperature, 5 mM HEPES-KOH pH 7.0
Experimental: as §3, §4, §5, §6, §7, §8

[3] = Liposome sedimentation (binding) assay
Experimental: as §1, §2
The assay was carried out as described previously. Briefly, equal volumes of NCR169 peptide (20 μM) and liposomes (2 mM) were mixed in assay buffer (20 mM HEPES, 150 mM NaCl, pH 7.0) and incubated for 30 min at room temperature, followed by ultracentrifugation at 200,000×g for 15 min at 20 °C. After centrifugation, the supernatant was collected, and the pellet was dissolved in the same volume of assay buffer containing 0.2% Triton X-100. The supernatant and pellet fractions were subjected to Tricine-SDS-PAGE, and peptides were detected by Coomassie Brilliant Blue staining.
Supplementary Figure S11. NCR 169 M binds to the bacterial phospholipid. (A) Circular dichroism (CD) spectra of NCR169M (20 μM) in water (No additive), 2 mM dimyristoylphosphatidylcholine (DMPC) liposomes, 2 mM dimyristoylphosphatidylglycerol (DMPG) liposomes or 30% 2,2,2-trifluoroethanol (TFE). (B) The result of liposome binding assay. NCR169M (20 μM) was incubated with buffer (No lipid),2 mM DMPC liposomes, or 2 mM DMPG liposomes . After incubation at room temperature for 30 min, the mixture was ultra-centrifuged at 200,000 × g. The supernatant and pellet fractions were analyzed by Tricine-SDS-PAGE. The no lipidsample before ultra-centrifugation was used as the input.
(also on this page, place not known: [θ] (103 deg cm2 dmol-1) markerkDa input No lipid sup ppt sup ppt sup ppt NCR169M lipid), DMPC 2 DMPG liposomes. lipid sample)
(1 picture or pasted object on this page, not shown here)
Supplementary Figure S12. The results of liposome binding assays. (A) NCR169-derived peptide (10 μM) was incubated with buffer (No lipid), 1 mM DMPC liposomes, 1 mM DMPG liposomes. After incubation at room temperature for 30 min, the mixture was ultra-centrifuged at 200,000 × g. The supernatant and pellet fractions were analyzed by Tricine-SDS-PAGE. The no lipid sample before ultra-centrifugation was used as the input. Arrows indicate weak bands. (B) […]

[4] = format: physicochemical
Experimental: To confirm it, we examined the solubility of NCR169 in various solvents, HEPES (salt-free), HEPES with salt (50 to 200 mM NaCl or KCl), and PBS. […] In other words, the disulfide bonds of NCR169 contribute to its solubility.
Supplementary Figure S3. Solubility assessment of NCR169. The same amount of NCR169 was dissolved in various solvents. After incubation at room temperature for 1 h, the solution was centrifuged at 20,000 × g and the supernatant was analyzed by Tricine-SDS-PAGE. […]

[5] = peptide 20 μM, 2 mM DMPG liposomes, 20 mM HEPES, 150 mM NaCl, pH 7.0, 30 min room temperature, 200,000×g, supernatant and pellet by Tricine-SDS-PAGE
[6] = NCR169-derived peptide 10 μM, 1 mM DMPG liposomes, 30 min room temperature, 200,000×g, Tricine-SDS-PAGE

| Molecule | Structural stability against pH (CD spectra) [1] | Binding to DMPC liposomes [2] | IC100 (Escherichia coli K-12) [µM] | IC50 (Escherichia coli K-12; K-12, 2 h, pH 7) [nM] | IC50 (Sinorhizobium meliloti; 2 h, pH 7) [nM] | IC100 (Sinorhizobium meliloti; S. meliloti) [µM] | Binding to DMPG liposomes [3, 5] | Solubility in various solvents [4] | Binding to DMPG liposomes [3, 6] | Antimicrobial activity (in words) (Escherichia coli K-12; E. coli K-12, various peptide concentrations) | Antimicrobial activity (in words) (Sinorhizobium meliloti; S. meliloti, various peptide concentrations) | IC50 (Escherichia coli K-12; E. coli K-12, 1 × 10^6 CFU/mL in 5 mM HEPES-KOH pH 7.0, 2 h at room temperature, spotted on MHB plates, 30 °C 13 h, survival rate from colony numbers, dose-response curve fitting, repeated at least four times, read-out: IC50 (50% inhibitory concentration)) [nM] | IC50 (Sinorhizobium meliloti; S. meliloti, 1 × 10^6 CFU/mL in 5 mM HEPES-KOH pH 7.0, 2 h at room temperature, spotted on MHB plates with 2.5 mM MgCl2 and 2.5 mM CaCl2, 30 °C 40 h, dose-response curve fitting, repeated at least four times, read-out: IC50 (50% inhibitory concentration)) [nM] |
| --- | --- | --- | --- | --- | --- | --- | --- | --- | --- | --- | --- | --- | --- |
| CC[C@H](C)[C@@H]1NC(=O)CNC(=O)[C@@H](NC(=O)[C@H](Cc2ccc(O)cc2)NC(=O)[C@H](CCCCN)NC(=O)[C@@H](NC(=O)[C@H](Cc2c[nH]cn2)NC(=O)CNC(=O)[C@@H](NC(=O)[C@H](CC(=O)O)NC(=O)[C@H](CCC(=O)O)NC(=O)CN)[C@@H](C)CC)[C@@H](C)CC)CSSC[C@@H](C(=O)N[C@@H](Cc2ccc(O)cc2)C(=O)N[C@@H](CCCCN)C(=O)N[C@@H](CO)C(=O)N[C@@H](CCCCN)C(=O)N[C@@H](CCCCN)C(=O)N2CCC[C@H]2C(=O)N[C@@H](CC(C)C)C(=O)N[C@@H](Cc2ccccc2)C(=O)N[C@@H](CCCCN)C(=O)N[C@H](C(=O)N[C@@H](Cc2c[nH]c3ccccc23)C(=O)N[C@@H](CCCCN)C(=O)N[C@H]2CSSC[C@@H](C(=O)N[C@H](C(=O)N[C@@H](CC(C)C)C(=O)N[C@@H](Cc3c[nH]c4ccccc34)C(=O)N[C@@H](Cc3ccc(O)cc3)C(=O)N[C@@H](CCCCN)C(=O)O)C(C)C)NC(=O)[C@H](C(C)C)NC(=O)[C@H](CC(N)=O)NC(=O)[C@H](CCC(=O)O)NC(=O)[C@H](C(C)C)NC2=O)[C@@H](C)CC)NC(=O)[C@H](CC(=O)O)NC(=O)[C@H](CC(=O)O)NC(=O)[C@H](C(C)C)NC1=O [NCR169-ox1] (H-GEDIGHIKYCGIVDDCYKSKKPLFKIWKCVENVCVLWYK-OH; disulfide 10-16, 29-34) | retained their conformations under acidic and neutral conditions | Neither NCR169-ox1 nor -ox2 bound | 16 | 410 | 6400 | 128 | bound to the DMPG liposomes | soluble in all conditions | – | – | – | – | – |
| CC[C@H](C)[C@H](NC(=O)[C@H](CCCCN)NC(=O)[C@H](Cc1ccccc1)NC(=O)[C@H](CC(C)C)NC(=O)[C@@H]1CCCN1C(=O)[C@H](CCCCN)NC(=O)[C@H](CCCCN)NC(=O)[C@H](CO)NC(=O)[C@H](CCCCN)NC(=O)[C@H](Cc1ccc(O)cc1)NC(=O)CN)C(=O)N[C@@H](Cc1c[nH]c2ccccc12)C(=O)N[C@@H](CCCCN)C(=O)N[C@H]1CSSC[C@@H](C(=O)N[C@H](C(=O)N[C@@H](CC(C)C)C(=O)N[C@@H](Cc2c[nH]c3ccccc23)C(=O)N[C@@H](Cc2ccc(O)cc2)C(=O)N[C@@H](CCCCN)C(=O)O)C(C)C)NC(=O)[C@H](C(C)C)NC(=O)[C@H](CC(N)=O)NC(=O)[C@H](CCC(=O)O)NC(=O)[C@H](C(C)C)NC1=O [NCR169CL-ox] (H-GYKSKKPLFKIWKCVENVCVLWYK-OH; disulfide 14-19) | – | – | 0.5 | 140 | 570 | > 128 | – | – | bound to DMPG liposomes | – | – | – | – |
| CC[C@H](C)[C@H](NC(=O)[C@H](CCCCN)NC(=O)CN)C(=O)N[C@@H](Cc1c[nH]c2ccccc12)C(=O)N[C@@H](CCCCN)C(=O)N[C@H]1CSSC[C@@H](C(=O)N[C@H](C(=O)N[C@@H](CC(C)C)C(=O)N[C@@H](Cc2c[nH]c3ccccc23)C(=O)N[C@@H](Cc2ccc(O)cc2)C(=O)N[C@@H](CCCCN)C(=O)O)C(C)C)NC(=O)[C@H](C(C)C)NC(=O)[C@H](CC(N)=O)NC(=O)[C@H](CCC(=O)O)NC(=O)[C@H](C(C)C)NC1=O [NCR169CS-ox] (H-GKIWKCVENVCVLWYK-OH; disulfide 6-11) | – | – | 64 | 5600 | 45000 | > 128 | – | – | bound to DMPG liposomes | – | – | – | – |
| CC[C@H](C)[C@@H]1NC(=O)CNC(=O)[C@@H](NC(=O)[C@H](Cc2ccc(O)cc2)NC(=O)[C@H](CCCCN)NC(=O)[C@@H](NC(=O)[C@H](Cc2c[nH]cn2)NC(=O)CNC(=O)[C@@H](NC(=O)[C@H](CC(=O)O)NC(=O)[C@H](CCC(=O)O)NC(=O)CN)[C@@H](C)CC)[C@@H](C)CC)CSSC[C@@H](C(=O)N[C@@H](Cc2ccc(O)cc2)C(=O)O)NC(=O)[C@H](CC(=O)O)NC(=O)[C@H](CC(=O)O)NC(=O)[C@H](C(C)C)NC1=O [NCR169N-ox] (H-GEDIGHIKYCGIVDDCY-OH; disulfide 10-16) | – | – | > 128 | – | – | > 128 | – | – | did not | no antimicrobial activity | no antimicrobial activity | – | – |
| Polymyxin B [PMB, reference compound] | – | – | 0.031 | – | – | 0.25 | – | – | – | – | – | 18 | 92 |
| YKSKKPLFKIWK [NCR169M] | – | – | 0.5 | 83 | 240 | 2 | bound to DMPG liposomes | – | – | – | – | – | – |
